Data published in the RepoRT retention time repository.
Where a name gives a salt, the structure may show the parent alone.

Test: RP, Thermo Scientific Hypersil GOLD, 1.9 µm, 40 °C, 0.4 mL/min; A: water + 0.1% formic acid, pH 3; B: acetonitrile + 0.1% formic acid, pH 3; gradient (min/%B) 0/0 1/0 11/100 13/100 14/0 16/0
Conditions: stereoisomer not certain

In order of falling LC retention time:
1. CCC(=O)C(=O)[O-] [2-OXOBUTANOATE]  9.98 min
2. O=C(O)c1ccc2ccccc2c1[O-] [1-HYDROXY-2-NAPHTHOATE]  8.24 min
3. C#CC1(O)CCC2C3CCc4cc(O)ccc4C3CCC21C (racemic)  8.17 min
4. O=C(O)CCCCC1CCSS1 (racemic)  7.53 min
5. Cc1ccc(O)c(O)c1 [4-METHYLCATECHOL]  6.6 min
6. O=C(O)CC(Cc1ccccc1)C(=O)O (racemic) [dl-benzylsuccinic acid]  6.38 min
7. O=C(O)C(=O)CCc1ccccc1 [2-oxo-4-phenyl-butyric acid]  6.35 min
8. CC(C)CC(O)C(=O)O (stereo not given) [2-Hydroxyisocaproic acid]  6.31 min
9. NC(Cc1cc(I)c(Oc2ccc(O)cc2)c(I)c1)C(=O)O [3-5-DIIODO-L-THYRONINE]  6.31 min
10. CC1C(=O)Nc2ccccc21 (stereo not given) [3-METHYL-2-OXINDOLE]  6.25 min
11. CC(=O)c1ccc(O)cc1O [2'-4'-DIHYDROXYACETOPHENONE]  6.1 min
12. O=C([O-])CCc1ccccc1O [3-(2-HYDROXYPHENYL)PROPANOATE]  5.92 min
13. Nc1cccc2ccccc12 [1-NAPHTHYLAMINE]  5.87 min
14. CCCCC(O)C(=O)O (stereo not given) [2-hydroxycaproic acid]  5.43 min
15. O=C(O)C=Cc1ccc(O)cc1 [4-COUMARATE]  5.43 min
16. O=Cc1cccc(O)c1 [3-HYDROXYBENZALDEHYDE]  5.4 min
17. Cc1ccccc1C(=O)NCC(=O)O [2-Methylhippuric acid (ortho-Methylhippuric acid)]  5.31 min
18. CC(C)(CCC(=O)O)C(=O)O [2-2-Dimethylglutaric acid]  5.21 min
19. O=Cc1ccc(O)cc1 [4-HYDROXYBENZALDEHYDE]  5.13 min
20. O=C(O)c1c(O)cccc1O [2-6-Dihydroxybenzoic acid]  5.12 min
21. O=C(O)Cc1cccc(O)c1 [3-HYDROXYPHENYLACETATE]  5.11 min
22. O=C(OC1Cc2c(O)cc(O)cc2OC1c1cc(O)c(O)c(O)c1)c1cc(O)c(O)c(O)c1 (single isomer, unassigned; (-)) [(-)-Epigallocatechin gallate]  5.05 min
23. CC(C)(CC(=O)O)CC(=O)O [3-3-Dimethylglutaric acid]  5.04 min
24. O=C(O)c1cccc(O)c1 [3-HYDROXYBENZOATE]  5.04 min
25. O=C(O)c1cccc(O)c1O [2-3-DIHYDROXYBENZOATE]  5.01 min
26. CC(CCC(=O)O)CC(=O)O (stereo not given) [3-Methyladipic acid]  5.01 min
27. CN1C2CC(OC(=O)C(CO)c3ccccc3)CC1C1OC12 (single isomer, unassigned; (-)) [(-)-Scopolamine hydrochloride]  4.91 min
28. O=C(O)c1ccc(O)cc1O [2-4-Dihydroxybenzoic acid]  4.88 min
29. O=C(O)Cc1ccc(O)cc1 [4-Hydroxyphenylacetic acid]  4.88 min
30. CC12CCC3C(CC=C4CC(O)CCC43C)C1CCC2=O (stereo not given) [3-b-Hydroxyandrost-5-en-17-one (Dehydroepiandrosterone)]  4.86 min
31. CC(C)(CC(=O)O)C(=O)O [2-2-Dimethylsuccinic acid]  4.85 min
32. O=C(O)CCc1ccc(O)cc1O [3-(2-4-Dihydroxyphenyl)propionic acid]  4.83 min
33. CC(C)C(O)(CC(=O)O)C(=O)O (stereo not given) [2-Isopropylmalic acid]  4.79 min
34. Oc1cc(O)c2c(c1)OC(c1ccc(O)c(O)c1)C(O)C2 (single isomer, unassigned; (+)) [(+)-Catechin hydrate]  4.73 min
35. CC(C)=CC(=O)OC(CC(=O)[O-])C[N+](C)(C)C [3-Methylcrotonyl-L-carnitine]  4.71 min
36. CC(C)C(C(=O)O)C(O)C(=O)O (stereo not given) [3-isopropylmalic acid]  4.68 min
37. O=C(O)c1ccc2ccccc2n1 [2-QUINOLINECARBOXYLATE]  4.64 min
38. NC(=O)c1ncccc1O [3-Hydroxypicolinamide]  4.64 min
39. CC(=O)NC(C(=O)O)C(C)C (racemic) [N-acetyl-DL-valine]  4.62 min
40. O=C(O)c1cc(O)ccc1O [2-5-DIHYDROXYBENZOATE]  4.52 min
41. O=c1ccc2cc(O)ccc2[nH]1 [2-6-quinolinediol]  4.44 min
42. CC(CCC(=O)O)C(=O)O (stereo not given) [2-METHYLGLUTARATE]  4.4 min
43. O=C(O)Cc1ccc(O)c(O)c1 [3-4-DIHYDROXYPHENYLACETATE]  4.32 min
44. Cn1c(=O)[nH]c2[nH]c(=O)n(C)c2c1=O [1-7-Dimethyluric acid]  4.27 min
45. CSCCC(O)C(=O)O (stereo not given) [2-HYDROXY-4-(METHYLTHIO)BUTANOATE]  4.21 min
46. CC(C)C(O)C(=O)O (stereo not given)  4.13 min
47. Cn1cnc2c(ncn2C2OC(CO)C(O)C2O)c1=N (stereo not given) [1-METHYLADENOSINE]  3.82 min
48. N[C@@H](Cc1ccc(O)c([N+](=O)[O-])c1)C(=O)O [3-NITRO-L-TYROSINE]  3.77 min
49. COC1C(O)C(CO)OC1n1cnc2c(=O)[nH]cnc21 (stereo not given) [2'-O-Methylinosine]  3.73 min
50. CC1OC(n2cnc3c(N)ncnc32)C(O)C1O (stereo not given) [5'-DEOXYADENOSINE]  3.66 min
51. O=C(O)c1cc(O)cc(O)c1 [3-5-Dihydroxybenzoic acid]  3.57 min
52. O=C(O)c1ccc(O)c(O)c1 [3-4-DIHYDROXYBENZOATE]  3.49 min
53. Nc1c(O)cccc1C(=O)O [3-HYDROXYANTHRANILATE]  3.43 min
54. Nc1ccc(C(=O)O)cc1 [4-AMINOBENZOATE]  3.29 min
55. O=C(O)C(O)c1cccc(O)c1 (stereo not given) [3-Hydroxymandelic acid]  2.66 min
56. Cn1c(=O)[nH]c(=O)c2[nH]cnc21 [3-Methylxanthine]  2.61 min
57. COc1cc(CCN)ccc1O [3-METHOXYTYRAMINE]  2.47 min
58. COc1cc(C(O)C(=O)O)ccc1O (stereo not given) [3-METHOXY-4-HYDROXYMANDELATE]  2.15 min
59. Cc1ncc(CO)c(C(=O)O)c1O [4-PYRIDOXATE]  1.73 min
60. CCC(O)C(=O)[O-] (stereo not given) [2-HYDROXYBUTYRATE]  1.71 min
61. CC(=O)NCCCC(=O)O [4-ACETAMIDOBUTANOATE]  1.69 min
62. O=c1cccc[nH]1 [2-HYDROXYPYRIDINE]  1.6 min
63. CC(O)(CC(=O)O)CC(=O)O [3-HYDROXYMETHYLGLUTARATE]  1.48 min
64. O=C(O)c1ccnc2ccccc12 [4-QUINOLINECARBOXYLIC ACID]  1.29 min
65. [NH3+]C(C(=O)[O-])C(O)c1ccccc1 (racemic) [L-Threo-3-Phenylserine (DL-3-Phenylserine)]  1.14 min
66. O=c1cccc(O)[nH]1 [2-6-DIHYDROXYPYRIDINE]  1.09 min
67. O=C(O)CCCC(=O)C(=O)O [2-OXOADIPATE]  1.05 min
68. O=c1[nH]c(=O)c2nccnc2[nH]1 [2-4-DIHYDROXYPTERIDINE]  0.96 min
69. OCC(O)c1ccc(O)c(O)c1 (stereo not given) [3-4-DIHYDROXYPHENYLGLYCOL]  0.92 min
70. O=C(O)C(O)c1ccc(O)c(O)c1 (stereo not given) [3-4 DIHYDROXYMANDELATE]  0.91 min
71. Nc1ccccc1O [2-AMINOPHENOL]  0.9 min
72. Cc1ccncc1 [4-Methylpyridine (4-Picoline)]  0.87 min
73. O=S(=O)(O)c1ccc(O)c(O)c1 [3-4-dihydroxybenzenesulfonic acid]  0.84 min
74. NC(N)=NCCCC(=O)O [4-GUANIDINOBUTANOATE]  0.84 min
75. NC(C(=O)O)c1ccccc1 (stereo not given) [2-Phenylglycine]  0.83 min
76. O=CCC(O)C(O)CO (stereo not given)  0.82 min
77. NC(Cc1ccc(O)c(O)c1)C(=O)O [3-4-DIHYDROXY-L-PHENYLALANINE]  0.82 min
78. Nc1cc(C(=O)O)ccc1[O-] [3-AMINO-4-HYDROXYBENZOATE]  0.82 min
79. Cc1cccnc1 [3-Methylpyridine (3-Picoline)]  0.82 min
80. Nc1ncccc1C(=O)O [2-Aminopyridine-3-carboxylic acid]  0.81 min
81. Nc1cc([O-])cc(C(=O)O)c1 [3-AMINO-5-HYDROXYBENZOATE]  0.81 min
82. O=C(O)CC(=O)CC(=O)O [1-3-Acetonedicarboxylic acid]  0.8 min
83. Cn1cnc(=N)c2[nH]cnc21 [3-METHYLADENINE]  0.8 min
84. OCC1OCC(O)C(O)C1O [1-5-Anhydro-D-sorbitol]  0.7 min
85. Cc1ncccc1C(N)=O [2-Methylnicotinamide]  0.69 min
86. CC(C)(N)C(=O)O [2-AMINOISOBUTYRATE]  0.67 min
87. NC(CS(=O)O)C(=O)O (stereo not given) [3-SULFINOALANINE]  0.67 min
88. N[C@H](C(=O)O)c1ccc(O)cc1 [4-HYDROXY-L-PHENYLGLYCINE]  0.67 min
89. O=C(O)Cc1cnc[nH]1 [4-IMIDAZOLEACETATE]  0.67 min
90. NC1(C(=O)O)CC1 [1-AMINOCYCLOPROPANECARBOXYLATE]  0.64 min
91. C[n+]1cccc(C(N)=O)c1 [1-METHYLNICOTINAMIDE]  0.63 min
92. CC(N)(Cc1cnc[nH]1)C(=O)O (racemic) [Alpha-methyl-DL-histidine dihydrochloride]  0.61 min
93. CC(=O)N[C@@H]1[C@@H](O)[C@H](O)[C@@H](CO)O[C@H]1N [2-ACETAMIDO-2-DEOXY-BETA-D-GLUCOSYLAMINE]  0.6 min
94. Cn1cnc(C[C@H](N)C(=O)O)c1 [1-METHYL-L-HISTIDINE]  0.59 min
95. Cn1cncc1CCN [3-METHYLHISTAMINE]  0.57 min
